Test results from patent US4450269A, “Mono-5-substituted-3-chloro-4H-1,2,6-thiadiazin-4-one antifungal agents” (FMC Corporation, priority 1980, dated 1984).
Where two headings read alike, the source gives them in different places.

Tests used:
Pyricularia oryzae [1] = assay type: cell-based; conditions: PO, 48 hours
Phytophthora infestans = test: whole plant or invertebrate; assay type: in vivo; conditions: for pest or weed control at 150 ppm: Phytophthora infestans, in Solanum lycopersicum, foliar, read-out: Percent Disease Control, foliar, tomato late blight, 150 ppm, protective; for Percent Disease Control, foliar, tomato late blight: 150 ppm, protective
Pyricularia oryzae [2] = test: whole plant or invertebrate; assay type: in vivo; conditions: for pest or weed control at 150 ppm: Pyricularia oryzae, foliar, 24 h, read-out: Percent Disease Control, curative, rice blast, 150 ppm, 24 hours after inoculation; for Percent Disease Control, curative, rice blast: 150 ppm, 24 hours after inoculation

Row | Molecule | Spore Germination Rating (Pyricularia oryzae [1]; 1.0 ppm) | Spore Germination Rating (Pyricularia oryzae [1]; 2.5 ppm) | Spore Germination Rating (Pyricularia oryzae [1]; 10 ppm) | Spore Germination Rating (Pyricularia oryzae [1]; 40 ppm) | pest or weed control at 150 ppm (Phytophthora infestans) [%] | pest or weed control at 150 ppm (Pyricularia oryzae [2]) [%] | Percent Disease Control, foliar, tomato late blight (Phytophthora infestans) [%] | Percent Disease Control, curative, rice blast (Pyricularia oryzae [2]) [%]
1 | Cc1cc(Oc2nsnc(Cl)c2=O)cc(C)c1Br [Compound 60, 3-[(4-bromo-3,5-dimethyl)-phenoxy]-5-chloro-4H--1,2,6-thiadiazin-4-one] | 0 (0-10) | 0 (0-10) | 0 (0-10) | 0 (0-10) | 0 | 0 |  | 
2 | 3-chloro-5-(bromophenoxy)-4H-1,2,6-thiadiazin-4-one [Compound 33] | 2 (40-60) | 0 (0-10) | 0 (0-10) | 0 (0-10) |  |  | 0 | 0
3 | O=C(Nc1ccccc1)Oc1ccc(Oc2nsnc(Cl)c2=O)cc1 [Compound 37, 3-chloro-5-[4-(phenylaminocarbonyloxy)phenoxy]-4H-1,2,6,-thiadiazin-4-one] | 4 (80-100) | 3 (60-80) | 0 (0-10) | 2 (40-60) | 0 | 0 |  | 
4 | O=C(O)c1ccc(Oc2nsnc(Cl)c2=O)cc1 [Compound 50, 3-(4-carboxyphenoxy)-5-chloro-4H--1,2,6-thiadiazin-4-one] | 4 (80-100) | 4 (80-100) | 4 (80-100) | 0 (0-10) | 0 | 90 |  | 
5 | O=c1c(Cl)nsnc1Oc1ccc(F)cc1 [Compound 11, 3-chloro-5-(4-fluorophenoxy)-4H--1,2,6-thiadiazin-4-one] | 3 (60-80) | 0 (0-10) | 0 (0-10) | 0 (0-10) | 100 | 0 |  | 
6 | CC(=O)c1ccc(Oc2nsnc(Cl)c2=O)cc1 [Compound 47, 3-(4-acetylphenoxy)-5-chloro-4H--1,2,6-thiadiazin-4-one] | 1 (10-40) | 0 (0-10) | 0 (0-10) | 0 (0-10) | 95 | 90 |  | 
7 | CC(=O)c1cccc(Oc2nsnc(Cl)c2=O)c1 [Compound 48, 3-(3-acetylphenoxy)-5-chloro-4H--1,2,6-thiadiazin-4-one] | 3 (60-80) | 1 (10-40) | 0 (0-10) | 0 (0-10) | 98 | 50 |  | 
8 | O=c1c(Cl)nsnc1Oc1ccc([N+](=O)[O-])cc1 [Compound 9, 3-chloro-5-(4-nitrophenoxy)-4H--1,2,6-thiadiazin-4-one] | 0 (0-10) | 0 (0-10) | 0 (0-10) | 0 (0-10) | 90 | 90 |  | 
9 | 3-chloro-5-[methylaminocarbonyloxy)phenoxyl]-4H-1,2,6-thiadiazin-4-one [Compound 36] | 4 (80-100) | 2 (40-60) | 0 (0-10) | 0 (0-10) |  |  | 90 | 95
10 | O=c1c(Cl)nsnc1Oc1cccc(Cl)c1 [Compound 13, 3-chloro-5-(3-chlorophenoxy)-4H--1,2,6-thiadiazin-4-one] | 3 (60-80) | 0 (0-10) | 0 (0-10) | 0 (0-10) | 98 | 0 |  | 
11 | Cc1cc(Oc2nsnc(Cl)c2=O)cc(C)c1Cl [Compound 59, 3-chloro-5-[(4-chloro-3,5-dimethyl)phenoxy]-4H--1,2,6-thiadiazin-4-one] | 0 (0-10) | 0 (0-10) | 0 (0-10) | 0 (0-10) | 0 | 0 |  | 
12 | Cc1cc(Oc2nsnc(Cl)c2=O)ccc1Cl [Compound 54, 3-chloro-5-(4-chloro-3-methylphenoxy)-4H--1,2,6-thiadiazin-4-one] | 0 (0-10) | 0 (0-10) | 0 (0-10) | 0 (0-10) | 0 | 0 |  | 
13 | Cc1cc(Cl)ccc1Oc1nsnc(Cl)c1=O [Compound 55, 3-chloro-5-(4-chloro-2-methylphenoxy)-4H--1,2,6-thiadiazin-4-one] | 1 (10-40) | 0 (0-10) | 0 (0-10) | 0 (0-10) | 90 | 50 |  | 
14 | N#Cc1ccc(Oc2nsnc(Cl)c2=O)cc1 [Compound 10, 3-chloro-5-(4-cyanophenoxy)-4H--1,2,6-thiadiazin-4-one] | 0 (0-10) | 0 (0-10) | 0 (0-10) | 0 (0-10) | 100 | 0 |  | 
15 | O=c1c(Cl)nsnc1Oc1ccc(Cl)cc1Cl [Compound 17, 3-chloro-5-(2,4-dichlorophenoxy)-4H--1,2,6-thiadiazin-4-one] | 0 (0-10) | 0 (0-10) | 0 (0-10) | 0 (0-10) | 100 | 0 |  | 
16 | Cc1cc(Cl)c(Oc2nsnc(Cl)c2=O)cc1C [Compound 58, 3-chloro-5-[(2-chloro-4,5-dimethyl)phenoxy]-4H--1,2,6-thiadiazin-4-one] | 4 (80-100) | 0 (0-10) | 0 (0-10) | 0 (0-10) | 0 | 0 |  | 
17 | O=c1c(Cl)nsnc1Oc1cccc2ccccc12 [Compound 32, 3-chloro-5(1-naphthoxy)-4H-1,2,6-thiadiazin-4-one] | 2 (40-60) | 0 (0-10) | 0 (0-10) | 0 (0-10) | 0 | 0 |  | 
18 | CC(C)(C)c1ccc(Oc2nsnc(Cl)c2=O)cc1 [Compound 4, 3-chloro-5-(4-tert-butylphnoxy)-4H--1,2,6-thiadiazin-4-one] | 4 (80-100) | 4 (80-100) | 0 (0-10) | 0 (0-10) | 0 | 95 |  | 
19 | Cc1ccc(Cl)c(Oc2nsnc(Cl)c2=O)c1 [Compound 56, 3-chloro-5-[(2-chloro-5-methyl)phenoxy]-4H--1,2,6-thiadiazin-4-one] | 0 (0-10) | 0 (0-10) | 0 (0-10) | 0 (0-10) | 95 | 0 |  | 
20 | O=c1c(Cl)nsnc1Oc1ccc(Cl)c(Cl)c1 [Compound 16, 3-chloro-5-(3,4-dichlorophenoxy)-4H--1,2,6-thiadiazin-4-one] | 0 (0-10) | 0 (0-10) | 0 (0-10) | 0 (0-10) | 0 | 90 |  | 
21 | Nc1ccc(Oc2nsnc(Cl)c2=O)cc1 [Compound 26, 5-(4-aminophenoxy)-3-chloro-4H--1,2,6-thiadiazin-4-one] | 4 (80-100) | 2 (40-60) | 0 (0-10) | 0 (0-10) |  |  | 0 | 0
